Experiments:
Assay type in all cases: in vivo
[1] = system: barnyardgrass (Echinochloa crus-galli, ECHCG); test: Pre-emerge test, greenhouse herbicide activity screening; conditions: rating scale 0-100, 14 days after application
How it was run: (§1)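 Fourteen days after spraying, crop and weed injury was graded visually from 0, no effect, to 100, every plant dead. Test substances were dissolved in acetone and applied at 15–1000 g ai/ha with a flat-fan nozzle. Application was either pre-emergence, one day after sowing, or post-emergence at the 2–3 leaf stage.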

[2] = system: green foxtail (Setaria viridis, SETVI); test: as above; conditions: rating scale 0-100, 14 days after application
How it was run: as §1

[3] = system: sicklepod (Cassia obtusifolia, CASOB); test: as above; conditions: rating scale 0-100, 14 days after application
How it was run: as §1

[4] = system: lambsquarters (Chenopodium album, CHEAL); test: as above; conditions: rating scale 0-100, 14 days after application
How it was run: as §1

[5] = system: velvetleaf (Abutilon theophrasti, ABUTH); test: as above; conditions: rating scale 0-100, 14 days after application
How it was run: as §1

[6] = system: ivyleaf morningglory (Ipomoea hederacea, IPOHE); test: as above; conditions: rating scale 0-100, 14 days after application
How it was run: as §1

[7] = system: large crabgrass (Digitaria sanguinalis, DIGSA); test: as above; conditions: rating scale 0-100, 14 days after application
How it was run: as §1

[8] = system: johnsongrass (Sorghum halepense, SORHA); test: as above; conditions: rating scale 0-100, 14 days after application
How it was run: as §1

[9] = system: common ragweed (Ambrosia artemisizfolia L., AMBEL); test: as above; conditions: rating scale 0-100, 14 days after application
How it was run: as §1

[10] = system: field corn (Zea mays L., var. Dekalb 535, CORN); test: Pre-emerge test, crop safety; conditions: rating scale 0-100, 14 days after application
How it was run: (§2)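 Visual ratings on a 0-100 scale (0 no damage, 100 all plants dead) were taken at 14 days after treatment. Rates of 15-1000 g ai/ha in acetone, 187 l/ha, were sprayed onto soil one day after planting (pre-emerge) or onto 2-3 leaf plants with 0.25% v/v surfactant (post-emerge).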

[11] = system: upland rice (Oryza sp., var. Tebonnet, RICE); test: Pre-emerge test, crop safety; conditions: rating scale 0-100, 14 days after application
How it was run: as §2

[12] = system: redroot pigweed (Amaranthus retroflexus, AMARE); test: Pre-emerge test, greenhouse herbicide activity screening; conditions: rating scale 0-100, 14 days after application
How it was run: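 Rating: 0–100 visual injury, 14 DAA. Application: acetone, 187 l/ha, 15–1000 g ai/ha, flat-fan track sprayer with nozzle 40–45 cm above soil or canopy. Post-emerge runs used 0.25% v/v surfactant on 2–3 leaf plants.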

[13] = system: barnyardgrass (Echinochloa crus-galli, ECHCG); test: Post-emerge test, greenhouse herbicide activity screening; conditions: rating scale 0-100 (0 no damage, 100 complete death), 14 days after application
How it was run: (§3)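 Compounds in acetone were track-sprayed at 15–1000 g ai/ha: pre-emergence onto soil sown the previous day, then top-watered to incorporate and later bottom-watered; post-emergence onto 2–3 leaf plants with 0.25% v/v surfactant, bottom-watered only. Ratings on a 0–100 phytotoxicity scale were taken at day 14.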

[14] = system: redroot pigweed (Amaranthus retroflexus, AMARE); test: as above; conditions: rating scale 0-100 (0 no damage, 100 complete death), 14 days after application
How it was run: as §3

[15] = system: green foxtail (Setaria viridis, SETVI); test: as above; conditions: rating scale 0-100 (0 no damage, 100 complete death), 14 days after application
How it was run: as §3

[16] = system: sicklepod (Cassia obtusifolia, CASOB); test: as above; conditions: rating scale 0-100 (0 no damage, 100 complete death), 14 days after application
How it was run: as §3

[17] = system: lambsquarters (Chenopodium album, CHEAL); test: as above; conditions: rating scale 0-100 (0 no damage, 100 complete death), 14 days after application
How it was run: as §3

[18] = system: velvetleaf (Abutilon theophrasti, ABUTH); test: as above; conditions: rating scale 0-100 (0 no damage, 100 complete death), 14 days after application
How it was run: as §3

[19] = system: ivyleaf morningglory (Ipomoea hederacea, IPOHE); test: as above; conditions: rating scale 0-100 (0 no damage, 100 complete death), 14 days after application
How it was run: as §3

[20] = system: large crabgrass (Digitaria sanguinalis, DIGSA); test: as above; conditions: rating scale 0-100 (0 no damage, 100 complete death), 14 days after application
How it was run: as §3

[21] = system: johnsongrass (Sorghum halepense, SORHA); test: as above; conditions: rating scale 0-100 (0 no damage, 100 complete death), 14 days after application
How it was run: as §3

[22] = system: field corn (Zea mays L., var. Dekalb 535, CORN); test: Post-emerge test, crop safety; conditions: rating scale 0-100 (0 no damage, 100 complete death), 14 days after application
How it was run: as §1

[23] = system: upland rice (Oryza sp., var. Tebonnet, RICE); test: Post-emerge test, crop safety; conditions: rating scale 0-100 (0 no damage, 100 complete death), 14 days after application
How it was run: as §1

SMILES: COC(=O)C(Cl)Cc1c(OC)c(Cl)cc(F)c1-n1c(=O)cc(C(F)(F)F)n(C)c1=O (stereo not shown) [14-3]
- Pre-emerge herbicidal activity, phytotoxicity rating ECHCG ([1]; 63 g ai/ha): 0
- Pre-emerge herbicidal activity, phytotoxicity rating ECHCG ([1]; 250 g ai/ha): 40
- Pre-emerge herbicidal activity, phytotoxicity rating SETVI ([2]; 63 g ai/ha): 40
- Pre-emerge herbicidal activity, phytotoxicity rating SETVI ([2]; 250 g ai/ha): 80
- Pre-emerge herbicidal activity, phytotoxicity rating CASOB ([3]; 63 g ai/ha): 20
- Pre-emerge herbicidal activity, phytotoxicity rating CASOB ([3]; 250 g ai/ha): 80
- Pre-emerge herbicidal activity, phytotoxicity rating CHEAL ([4]; 63 g ai/ha): 100
- Pre-emerge herbicidal activity, phytotoxicity rating CHEAL ([4]; 250 g ai/ha): 100
- Pre-emerge herbicidal activity, phytotoxicity rating ABUTH ([5]; 63 g ai/ha): 100
- Pre-emerge herbicidal activity, phytotoxicity rating ABUTH ([5]; 250 g ai/ha): 100
- Pre-emerge herbicidal activity, phytotoxicity rating IPOHE ([6]; 63 g ai/ha): 0
- Pre-emerge herbicidal activity, phytotoxicity rating IPOHE ([6]; 250 g ai/ha): 50
- Pre-emerge herbicidal activity, phytotoxicity rating DIGSA ([7]; 63 g ai/ha): 30
- Pre-emerge herbicidal activity, phytotoxicity rating DIGSA ([7]; 250 g ai/ha): 90
- Pre-emerge herbicidal activity, phytotoxicity rating SORHA ([8]; 63 g ai/ha): 0
- Pre-emerge herbicidal activity, phytotoxicity rating SORHA ([8]; 250 g ai/ha): 60
- Pre-emerge herbicidal activity, phytotoxicity rating AMBEL ([9]; 63 g ai/ha): 0
- Pre-emerge herbicidal activity, phytotoxicity rating AMBEL ([9]; 250 g ai/ha): 65
- Pre-emerge phytotoxicity rating, crop damage CORN ([10]; 63 g ai/ha): 0
- Pre-emerge phytotoxicity rating, crop damage CORN ([10]; 250 g ai/ha): 90
- Pre-emerge phytotoxicity rating, crop damage RICE ([11]; 63 g ai/ha): 0
- Pre-emerge phytotoxicity rating, crop damage RICE ([11]; 250 g ai/ha): 50
- Pre-emerge herbicidal activity, phytotoxicity rating AMARE ([12]; 63 g ai/ha): 100
- Pre-emerge herbicidal activity, phytotoxicity rating AMARE ([12]; 250 g ai/ha): 100
- Post-emerge Herbicidal Activity, phytotoxicity rating ECHCG ([13]; Rate 63 g ai/ha): 99
- Post-emerge Herbicidal Activity, phytotoxicity rating ECHCG ([13]; Rate 250 g ai/ha): 100
- Post-emerge Herbicidal Activity, phytotoxicity rating AMARE ([14]; Rate 63 g ai/ha): 95
- Post-emerge Herbicidal Activity, phytotoxicity rating AMARE ([14]; Rate 250 g ai/ha): 100
- Post-emerge Herbicidal Activity, phytotoxicity rating SETVI ([15]; Rate 63 g ai/ha): 30
- Post-emerge Herbicidal Activity, phytotoxicity rating SETVI ([15]; Rate 250 g ai/ha): 70
- Post-emerge Herbicidal Activity, phytotoxicity rating CASOB ([16]; Rate 63 g ai/ha): 10
- Post-emerge Herbicidal Activity, phytotoxicity rating CASOB ([16]; Rate 250 g ai/ha): 75
- Post-emerge Herbicidal Activity, phytotoxicity rating CHEAL ([17]; Rate 63 g ai/ha): 90
- Post-emerge Herbicidal Activity, phytotoxicity rating CHEAL ([17]; Rate 250 g ai/ha): 100
- Post-emerge Herbicidal Activity, phytotoxicity rating ABUTH ([18]; Rate 63 g ai/ha): 100
- Post-emerge Herbicidal Activity, phytotoxicity rating ABUTH ([18]; Rate 250 g ai/ha): 100
- Post-emerge Herbicidal Activity, phytotoxicity rating IPOHE ([19]; Rate 63 g ai/ha): 50
- Post-emerge Herbicidal Activity, phytotoxicity rating IPOHE ([19]; Rate 250 g ai/ha): 100
- Post-emerge Herbicidal Activity, phytotoxicity rating DIGSA ([20]; Rate 63 g ai/ha): 99
- Post-emerge Herbicidal Activity, phytotoxicity rating DIGSA ([20]; Rate 250 g ai/ha): 100
- Post-emerge Herbicidal Activity, phytotoxicity rating SORHA ([21]; Rate 63 g ai/ha): 80
- Post-emerge Herbicidal Activity, phytotoxicity rating SORHA ([21]; Rate 250 g ai/ha): 70
- Post-emerge phytotoxicity rating CORN (crop damage) ([22]; Rate 63 g ai/ha): 100
- Post-emerge phytotoxicity rating CORN (crop damage) ([22]; Rate 250 g ai/ha): 100
- Post-emerge phytotoxicity rating RICE (crop damage) ([23]; Rate 63 g ai/ha): 5
- Post-emerge phytotoxicity rating RICE (crop damage) ([23]; Rate 250 g ai/ha): 80

From US6355799B1, “Substituted benzene compounds, process for their preparation, and herbicidal and defoliant compositions containing them” (ISK Americas Incorporated, priority 1997, dated 2002)
